The test system of data set [1] is Biomphalaria alexandrina. Briefly: Molluscicidal activity against Biomphalaria alexandrina assessed as number of dead snail at 20 ppm after 24 hrs. It counts as organism-based. To be noted: in vivo.
The test system of data set [2] is Biomphalaria alexandrina. Briefly: Molluscicidal activity against Biomphalaria alexandrina assessed as number of dead snail at 10 ppm after 24 hrs. To be noted: in vivo. In kind it is organism-based.
For data set [3], the system named is Biomphalaria alexandrina. The experiment in a line: Molluscicidal activity against Biomphalaria alexandrina assessed as number of dead snail at 20 ppm after 24 hrs allowed to recover for an additional 24 hrs. It counts as organism-based. To be noted: in vivo.
Data set [4] relates to Biomphalaria alexandrina. The experiment in a line: Molluscicidal activity against Biomphalaria alexandrina assessed as number of dead snail at 10 ppm after 24 hrs allowed to recover for an additional 24 hrs. It counts as organism-based. To be noted: in vivo.
Data set [5] deals with Biomphalaria alexandrina. Briefly: Molluscicidal activity against Biomphalaria alexandrina assessed as number of dead snail at 20 ppm after 48 hrs. It counts as organism-based. To be noted: in vivo.
Data set [6] deals with Biomphalaria alexandrina. The experiment in a line: Molluscicidal activity against Biomphalaria alexandrina assessed as number of dead snail at 10 ppm after 48 hrs. To be noted: in vivo. In kind it is organism-based.
A further data set relates to Candida albicans. Briefly: Antifungal activity against Candida albicans ATCC 10259 after 24 hrs by microplate broth assay. It counts as functional. To be noted: ATCC 10259, 24 h.
In another data set the test system is Cryptococcus neoformans. Briefly: Antifungal activity against Cryptococcus neoformans ATCC 36556 after 48 hrs by microplate broth assay. In kind it is functional. To be noted: ATCC 36556, 48 h.
A further data set concerns Aspergillus fumigatus. Briefly: Antifungal activity against Aspergillus fumigatus ATCC 13073 after 48 hrs by microplate broth assay. It counts as functional. To be noted: ATCC 13073, 48 h.

Take `C[C@@H]1O[C@@H](O[C@H]2[C@H](O[C@H]3CC[C@]4(C)[C@H]5CC=C6[C@@H]7CC(C)(C)CC[C@]7(C(=O)O)CC[C@@]6(C)[C@]5(C)CC[C@H]4C3(C)C)OC[C@H](O[C@@H]3O[C@H](CO)[C@@H](O)[C@H](O)[C@H]3O)[C@@H]2O)[C@H](O)[C@H](O)[C@H]1O` [HEDERACOLCHISIDE A1]: the Activity entry with Biomphalaria alexandrina [1] is on record as “Active”; with Biomphalaria alexandrina [2] it was “Active”; with Biomphalaria alexandrina [3], “Active”; with Biomphalaria alexandrina [4] it was “Active”; in the data set with Biomphalaria alexandrina [5], 100%; in the data set on Biomphalaria alexandrina [6] it was 100%.

Turning to `C[C@@H]1O[C@@H](O[C@H]2[C@H](O[C@H]3CC[C@@]4(C)[C@@H](CC[C@]5(C)[C@@H]4CC=C4[C@@H]6CC(C)(C)CC[C@]6(C(=O)O)CC[C@]45C)[C@]3(C)CO)OC[C@H](O[C@@H]3O[C@H](CO)[C@@H](O)[C@H](O)[C@H]3O)[C@@H]2O)[C@H](O)[C@H](O[C@@H]2OC[C@H](O)[C@H](O)[C@H]2O)[C@H]1O` [SALZMANNIANOSIDE B], the Activity result in the data set on Biomphalaria alexandrina [4] is “Active”; with Biomphalaria alexandrina [5], 70%; in the data set on Biomphalaria alexandrina [6], 100%. Moreover, the MIC against Candida albicans is not below 125 mg/L; with Cryptococcus neoformans, not above 8 mg/L; in the data set with Aspergillus fumigatus it was not below 250 mg/L.

On to `C[C@@H]1O[C@@H](O[C@H]2[C@H](O[C@H]3CC[C@]4(C)[C@H]5CC=C6[C@@H]7CC(C)(C)CC[C@]7(C(=O)O)CC[C@@]6(C)[C@]5(C)CC[C@H]4[C@]3(C)C=O)OC[C@H](O[C@@H]3O[C@H](CO)[C@@H](O)[C@H](O)[C@H]3O)[C@@H]2O)[C@H](O)[C@H](O)[C@H]1O` [SALZMANNIANOSIDE A], for which the Activity entry in the data set on Biomphalaria alexandrina [1] is listed as “Active”; with Biomphalaria alexandrina [2] it was “Not Active”; in the data set on Biomphalaria alexandrina [3] it was “Active”; in the data set with Biomphalaria alexandrina [4], “Not Active”; in the data set on Biomphalaria alexandrina [5], 100%; with Biomphalaria alexandrina [6], 0%. Besides, the figures for the MIC with Candida albicans, in the data set with Cryptococcus neoformans and against Aspergillus fumigatus were not above 16 mg/L, not above 8 mg/L and not below 125 mg/L, respectively.

In the case of `C[C@@H]1O[C@@H](O[C@H]2[C@H](O[C@H]3CC[C@@]4(C)[C@@H](CC[C@]5(C)[C@@H]4CC=C4[C@@H]6CC(C)(C)CC[C@]6(C(=O)O)CC[C@]45C)[C@]3(C)CO)OC[C@H](O[C@@H]3O[C@H](CO)[C@@H](O)[C@H](O)[C@H]3O)[C@@H]2O)[C@H](O)[C@H](O)[C@H]1O` [HEDERACOLCHISIDE A], the Activity result with Biomphalaria alexandrina [1] was “Active”; with Biomphalaria alexandrina [3], “Active”; in the data set with Biomphalaria alexandrina [5] it was 100%; in the data set with Biomphalaria alexandrina [6] it was 90%. Further, the MIC was not above 16 mg/L against Candida albicans, not above 8 mg/L with Cryptococcus neoformans and not below 250 mg/L against Aspergillus fumigatus.

For the origin of these results see ChEMBL document CHEMBL1158245, “Antifungal and molluscicidal saponins from Serjania salzmanniana” (J Nat Prod, 1996).
